“And” between values parts separate entries of the source, which are not always exact repeats. Equal values may be shown once. Inconclusive results and toxic doses are left out.
Tested on: L1210 leukemia ip in BDF1 mice, survival T/C
Assay: NCI In Vivo Anticancer Drug Screen. Data for tumor model L1210 Leukemia (intraperitoneal) in B6D2F1 (BDF1) mice
Conditions: higher = longer survival
Procedure, shortened: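 Ratio derived from survival: compound-dosed mice over vehicle-dosed mice, all bearing a transplantable tumor.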

[1] = endpoint: mean survival time, dose: 100.0 mg/kg/injection, schedule: Q04DX002 (ip), vehicle: Klucel (hydroxypropylcellulose) (HPC)
[2] = endpoint: mean survival time, dose: 200.0 mg/kg/injection, schedule: Q04DX002 (ip), vehicle: Klucel (hydroxypropylcellulose) (HPC)
[3] = endpoint: mean survival time, dose: 400.0 mg/kg/injection, schedule: Q04DX002 (ip), vehicle: Klucel (hydroxypropylcellulose) (HPC)
[4] = endpoint: mean survival time, dose: 100.0 mg/kg/injection, schedule: Q01DX009 (ip), vehicle: Klucel (hydroxypropylcellulose) (HPC)
[5] = endpoint: mean survival time, dose: 200.0 mg/kg/injection, schedule: Q01DX009 (ip), vehicle: Klucel (hydroxypropylcellulose) (HPC)
[6] = endpoint: mean survival time, dose: 200.0 mg/kg/injection, schedule: Q04DX003 (ip), vehicle: saline
[7] = endpoint: mean survival time, dose: 400.0 mg/kg/injection, schedule: Q04DX003 (ip), vehicle: saline
[8] = endpoint: mean survival time, dose: 100.0 mg/kg/injection, schedule: Q04DX003 (ip), vehicle: Klucel (hydroxypropylcellulose) (HPC)
[9] = endpoint: mean survival time, dose: 200.0 mg/kg/injection, schedule: Q04DX003 (ip), vehicle: Klucel (hydroxypropylcellulose) (HPC)
[10] = endpoint: mean survival time, dose: 400.0 mg/kg/injection, schedule: Q01DX009 (ip), vehicle: Klucel (hydroxypropylcellulose) (HPC)
[11] = endpoint: mean survival time, dose: 400.0 mg/kg/injection, schedule: Q04DX003 (ip), vehicle: Klucel (hydroxypropylcellulose) (HPC)
[12] = endpoint: mean survival time, dose: 100.0 mg/kg/injection, schedule: Q01DX009 (ip), vehicle: saline with Tween-80
[13] = endpoint: mean survival time, dose: 200.0 mg/kg/injection, schedule: Q01DX009 (ip), vehicle: saline with Tween-80
[14] = endpoint: mean survival time, dose: 6.0 mg/kg/injection, schedule: Q01DX009 (ip), vehicle: saline
[15] = endpoint: mean survival time, dose: 100.0 mg/kg/injection, schedule: Q01DX001 (ip), vehicle: carboxymethylcellulose (CMC)
[16] = endpoint: mean survival time, dose: 200.0 mg/kg/injection, schedule: Q01DX001 (ip), vehicle: carboxymethylcellulose (CMC)
[17] = endpoint: mean survival time, dose: 400.0 mg/kg/injection, schedule: Q01DX001 (ip), vehicle: carboxymethylcellulose (CMC)
[18] = endpoint: mean survival time, dose: 50.0 mg/kg/injection, schedule: Q04DX002 (ip), vehicle: Klucel (hydroxypropylcellulose) (HPC)
[19] = endpoint: mean survival time, dose: 100.0 mg/kg/injection, schedule: Q04DX003 (ip), vehicle: saline with Tween-80
[20] = endpoint: mean survival time, dose: 200.0 mg/kg/injection, schedule: Q04DX003 (ip), vehicle: saline with Tween-80

## Cc1cccc(C)c1OC(=O)NC1CCCCC1
[1]
  T/C: 107 % of control
[2]
  T/C: 89 % of control
[3]
  T/C: 96 % of control

## Clc1nnc(Nc2ccccc2)c2ccccc12
[4]
  T/C: 96 % of control
[5]
  T/C: 93 % of control
[6]
  T/C: 93 % of control
[7]
  T/C: 91 % of control

## Cc1cc(C)c(NC(=O)Nc2ccccc2)c(C)c1
[4]
  T/C: 96 % of control
[8]
  T/C: 98 % of control
[5]
  T/C: 104 % of control
[9]
  T/C: 98 % of control
[10]
  T/C: 95 % of control
[11]
  T/C: 101 % of control

## CC(C)c1cc(C(C)C)n2nc(N)nc2n1
[12]
  T/C: 96 % of control
[13]
  T/C: 102 % of control
endpoint: mean survival time, dose: 400.0 mg/kg/injection, schedule: Q01DX009 (ip), vehicle: saline with Tween-80
  T/C: 105 % of control

## c1ccc([As](c2ccccc2)c2ccccc2)cc1
endpoint: mean survival time, dose: 50.0 mg/kg/injection, schedule: Q01DX001 (ip), vehicle: other
  T/C: 103 % of control
endpoint: mean survival time, dose: 100.0 mg/kg/injection, schedule: Q01DX001 (ip), vehicle: other
  T/C: 103 % of control
endpoint: mean survival time, dose: 200.0 mg/kg/injection, schedule: Q01DX001 (ip), vehicle: other
  T/C: 97 % of control
endpoint: mean survival time, dose: 400.0 mg/kg/injection, schedule: Q01DX001 (ip), vehicle: other
  T/C: 103 % of control

## CNC(=O)c1ccc(Cl)c(S(=O)(=O)NC)c1
[1]
  T/C: 100 % of control
[2]
  T/C: 104 % of control
[3]
  T/C: 107 % of control

## Cc1cc(C[P+](c2ccccc2)(c2ccccc2)c2ccccc2)c(C[P+](c2ccccc2)(c2ccccc2)c2ccccc2)cc1C
endpoint: mean survival time, dose: 1.5 mg/kg/injection, schedule: Q04DX003 (ip), vehicle: saline
  T/C: 104 % of control
endpoint: mean survival time, dose: 3.0 mg/kg/injection, schedule: Q01DX009 (ip), vehicle: saline
  T/C: 97 % of control
endpoint: mean survival time, dose: 3.0 mg/kg/injection, schedule: Q04DX003 (ip), vehicle: saline
  T/C: 106 % of control
[14]
  T/C: 94 % of control
endpoint: mean survival time, dose: 6.0 mg/kg/injection, schedule: Q04DX003 (ip), vehicle: saline
  T/C: 98 % of control

## Nc1ccn(C2CC(O)C(CO)O2)c(=O)n1 (stereo not given)
endpoint: median survival time, dose: 75.0 mg/kg/injection, schedule: Q01DX001 (ip), vehicle: other
  T/C: 100 % of control and 101 % of control
endpoint: median survival time, dose: 150.0 mg/kg/injection, schedule: Q01DX001 (ip), vehicle: other
  T/C: 99 % of control and 100 % of control

## C#CC(C)(C)C(C(=O)OCC)C(=O)OCC
endpoint: mean survival time, dose: 75.0 mg/kg/injection, schedule: Q01DX009 (ip), vehicle: Klucel (hydroxypropylcellulose) (HPC)
  T/C: 102 % of control
endpoint: mean survival time, dose: 150.0 mg/kg/injection, schedule: Q01DX009 (ip), vehicle: Klucel (hydroxypropylcellulose) (HPC)
  T/C: 100 % of control
endpoint: mean survival time, dose: 300.0 mg/kg/injection, schedule: Q01DX009 (ip), vehicle: Klucel (hydroxypropylcellulose) (HPC)
  T/C: 97 % of control

## O=C(COc1cccc(Cl)c1)NCc1ccccc1NC(=O)c1cccc(S(=O)(=O)F)c1
[15]
  T/C: 90 % of control
[16]
  T/C: 95 % of control
[17]
  T/C: 95 % of control

## CCOC(=N)N1Cc2ccccc2CCc2ccccc2C1
endpoint: mean survival time, dose: 6.25 mg/kg/injection, schedule: Q01DX009 (ip), vehicle: Klucel (hydroxypropylcellulose) (HPC)
  T/C: 95 % of control
endpoint: mean survival time, dose: 12.5 mg/kg/injection, schedule: Q01DX009 (ip), vehicle: Klucel (hydroxypropylcellulose) (HPC)
  T/C: 101 % of control
endpoint: mean survival time, dose: 25.0 mg/kg/injection, schedule: Q01DX009 (ip), vehicle: Klucel (hydroxypropylcellulose) (HPC)
  T/C: 101 % of control
endpoint: mean survival time, dose: 25.0 mg/kg/injection, schedule: Q04DX002 (ip), vehicle: Klucel (hydroxypropylcellulose) (HPC)
  T/C: 102 % of control
[18]
  T/C: 97 % of control

## O=C(Nc1ccccc1Cl)OC/C=C/c1ccccc1
[4]
  T/C: 103 % of control
[1]
  T/C: 88 % of control
[5]
  T/C: 96 % of control
[2]
  T/C: 88 % of control
[10]
  T/C: 108 % of control
[3]
  T/C: 100 % of control

## CN1CCC2(CC1)C(=O)N(CC1COc3ccccc3O1)C(=O)C2c1ccccc1 (stereo not given)
endpoint: mean survival time, dose: 100.0 mg/kg/injection, schedule: Q01DX001 (ip), vehicle: Klucel (hydroxypropylcellulose) (HPC)
  T/C: 99 % of control

## O=C1c2cc([N+](=O)[O-])ccc2-c2ccc([N+](=O)[O-])cc21
endpoint: mean survival time, dose: 50.0 mg/kg/injection, schedule: Q01DX009 (ip), vehicle: Klucel (hydroxypropylcellulose) (HPC)
  T/C: 95 % of control and 90 % of control
[15]
  T/C: 89 % of control
[4]
  T/C: 109 % of control
[1]
  T/C: 101 % of control
[16]
  T/C: 87 % of control
[5]
  T/C: 98 % of control and 102 % of control
[2]
  T/C: 113 % of control
[17]
  T/C: 97 % of control
[3]
  T/C: 89 % of control

## CCCCn1cc(COCC)c(=O)[nH]c1=O
[18]
  T/C: 98 % of control
[1]
  T/C: 102 % of control
[2]
  T/C: 98 % of control

## Nc1ncnc2nc(-c3ccc(SCc4ccccc4)cc3)[nH]c12
endpoint: mean survival time, dose: 50.0 mg/kg/injection, schedule: Q01DX009 (ip), vehicle: saline with Tween-80
  T/C: 93 % of control and 89 % of control
endpoint: mean survival time, dose: 100.0 mg/kg/injection, schedule: Q01DX001 (ip), vehicle: saline with Tween-80
  T/C: 91 % of control
[12]
  T/C: 99 % of control and 103 % of control and 104 % of control
endpoint: mean survival time, dose: 100.0 mg/kg/injection, schedule: Q04DX002 (ip), vehicle: saline with Tween-80
  T/C: 103 % of control
endpoint: mean survival time, dose: 200.0 mg/kg/injection, schedule: Q01DX001 (ip), vehicle: saline with Tween-80
  T/C: 87 % of control
[13]
  T/C: 96 % of control and 103 % of control and 86 % of control
endpoint: mean survival time, dose: 200.0 mg/kg/injection, schedule: Q04DX002 (ip), vehicle: saline with Tween-80
  T/C: 97 % of control and 100 % of control
endpoint: mean survival time, dose: 400.0 mg/kg/injection, schedule: Q01DX001 (ip), vehicle: saline with Tween-80
  T/C: 91 % of control
endpoint: mean survival time, dose: 400.0 mg/kg/injection, schedule: Q04DX002 (ip), vehicle: saline with Tween-80
  T/C: 94 % of control and 100 % of control

## O=CNc1ccccc1[N+](=O)[O-]
[19]
  T/C: 94 % of control
[20]
  T/C: 94 % of control

## CCCCCCCCCCCCCCCCNc1cc(C)cc(C)c1
[8]
  T/C: 96 % of control
[9]
  T/C: 95 % of control
[11]
  T/C: 101 % of control

## O=S1(=O)C2CCCCC2(N2CCOCC2)C1c1ccccc1 (stereo not given)
endpoint: mean survival time, dose: 66.0 mg/kg/injection, schedule: Q04DX003 (ip), vehicle: other
  T/C: 118 % of control
endpoint: mean survival time, dose: 100.0 mg/kg/injection, schedule: Q01DX009 (ip), vehicle: other
  T/C: 97 % of control
endpoint: mean survival time, dose: 100.0 mg/kg/injection, schedule: Q04DX003 (ip), vehicle: other
  T/C: 101 % of control and 202 % of control
endpoint: mean survival time, dose: 150.0 mg/kg/injection, schedule: Q04DX003 (ip), vehicle: other
  T/C: 93 % of control
endpoint: mean survival time, dose: 200.0 mg/kg/injection, schedule: Q01DX009 (ip), vehicle: other
  T/C: 97 % of control
endpoint: mean survival time, dose: 200.0 mg/kg/injection, schedule: Q04DX003 (ip), vehicle: other
  T/C: 97 % of control
endpoint: mean survival time, dose: 400.0 mg/kg/injection, schedule: Q01DX009 (ip), vehicle: other
  T/C: 100 % of control
endpoint: mean survival time, dose: 400.0 mg/kg/injection, schedule: Q04DX003 (ip), vehicle: other
  T/C: 94 % of control

## CC(C)(C)/C=N/Nc1ccc([N+](=O)[O-])cc1[N+](=O)[O-]
[4]
  T/C: 108 % of control
[5]
  T/C: 106 % of control
[10]
  T/C: 102 % of control

## Cc1cc(NCCCN(C)C)c2c(c1N)C(=O)c1ccccc1C2=O
[8]
  T/C: 88 % of control
[9]
  T/C: 92 % of control
[11]
  T/C: 92 % of control

## COC(=O)c1ccccc1SSc1ccccc1C(=O)OC
[19]
  T/C: 95 % of control
[20]
  T/C: 102 % of control
endpoint: mean survival time, dose: 400.0 mg/kg/injection, schedule: Q04DX003 (ip), vehicle: saline with Tween-80
  T/C: 102 % of control

## CC(C)(C(=O)O)c1ccccc1C(=O)c1ccccc1
[8]
  T/C: 97 % of control
[9]
  T/C: 101 % of control
[11]
  T/C: 105 % of control

## [Ni+2].[SH2+]C([SH2+])=Nc1ccccc1.[SH2+]C([SH2+])=Nc1ccccc1.c1ccc(C[P+](c2ccccc2)(c2ccccc2)c2ccccc2)cc1
[14]
  T/C: 94 % of control

## CCOC(=O)C(=Cc1ccccc1Cl)C(=O)OCC
[4]
  T/C: 88 % of control
[8]
  T/C: 104 % of control
[5]
  T/C: 99 % of control
[9]
  T/C: 90 % of control

## C1=C(C2=CCCCC2)CCCC1
endpoint: mean survival time, dose: 100.0 mg/kg/injection, schedule: Q01DX009 (ip), vehicle: acetone
  T/C: 108 % of control
endpoint: mean survival time, dose: 100.0 mg/kg/injection, schedule: Q04DX003 (ip), vehicle: saline
  T/C: 112 % of control
endpoint: mean survival time, dose: 200.0 mg/kg/injection, schedule: Q01DX009 (ip), vehicle: acetone
  T/C: 100 % of control
[6]
  T/C: 104 % of control
endpoint: mean survival time, dose: 400.0 mg/kg/injection, schedule: Q01DX009 (ip), vehicle: acetone
  T/C: 108 % of control
[7]
  T/C: 96 % of control
